Columns and labels:
[1] = test system: late passage (P11) pancreatic-derived stromal cell line; test: Two high dose trichostatin A treatments (first 48 h), gene expression by RT-PCR (Example 9); format: cell-based, human; conditions: for HNF-3 beta gene expression / Insulin gene expression / Pdx-1 gene expression / glucagon gene expression: 5 μM 0-48 h + 96-120 h; for HNF-3 beta RT-PCR detection cycle / Pdx-1 RT-PCR detection cycle / glucagon RT-PCR detection cycle: 5.0 μM;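 on HNF-3 beta RT-PCR detection cycle: lower cycle number means higher gene expression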;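 on glucagon RT-PCR detection cycle: lower cycle number means higher gene expression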
Experimental: (§1) Several cell lines obtained from different amniotic fluid specimens (see Example 14) and pancreas donors (see Example 13) were tested with similar results. Two lines at similar passage number but derived from different amniotic fluid specimens are shown in Table VIII-A and Table VIII-B for this example. One of these cell lines was also used in examples 2 and 4 above. In addition, this example also contains comparison data in Table VIII-C and Table VIII-D for a single pancreatic-derived stromal line grown to early and late passage number.
(§2) Amniotic fluid derived cells or pancreatic-derived stromal cells were seeded into 24-well tissue culture plates at a density of 5000/cm^2 and cultured in AMNIOMAX (Invitrogen) or DMEM with 10% FBS respectively under standard cell culture conditions until confluent. After reaching confluence, amniotic fluid derived cells were treated at time 0 hours with a dose of 1.25 μM trichostatin A, and pancreatic-derived stromal cells were treated with a dose of 5.0 μM trichostatin A solubilized in DMSO and medium. At time 48 hours, cell cultures underwent a complete medium change to remove all traces of trichostatin A. At time 96 hours, cell cultures were re-fed with fresh medium and received a second dose of trichostatin A at the same concentration as used previously. At time 120 hours, cell cultures again underwent a complete medium change and were cultured for an additional 24 hours or […] total incubation time. Samples were taken for RT-PCR at the times indicated in Table IX-A to D. RNA samples were obtained daily from the start of the experiment. Culture medium was removed, and cells were washed with PBS then collected in RLT with β-mercaptoethanol (Qiagen). RNA was purified using the RNeasy Mini Kit (Qiagen) and RNA quantity and quality was determined using a spectrophotometer. cDNA was made using the iScript cDNA synthesis kit (BioRad). Human pancreas cDNA was included as a control. Results were normalized against GAPDH expression levels.
(§3) Gene expression levels of Sox17, HNF-3 beta, Pdx-1, insulin, and glucagon were analyzed in amniotic-derived cells, while expression levels of glucagon, insulin, HNF-3 beta, and Pdx-1 were analyzed in pancreas-derived cells. Samples of 20 ng cDNA was used in each Real-Time PCR reaction. RT-PCR was performed on the Applied Biosystems 7500, according to the methods described in Example 15. The data were analyzed using the accompanying software.
(§4) Real-time PCR amplifcation and quantitative analysis. Unless otherwise stated, all reagents were purchased from Applied Biosystems. Real-time PCR reactions were performed using the ABI PRISM™ 7500 Sequence Detection System. TAQMAN™ FAST UNIVERSAL PCR MASTER MIX™ (ABI, CA) was used with 20 ng of reverse transcribed RNA in a total reaction volume of 20 μl. Each cDNA sample was run in duplicate to allow correction of pipetting errors. Primers and FAM-labeled TAQMAN™ probes were used at concentrations of 200 nM. The level of expression for each target gene was normalized using the pre-developed Applied Biosystem's human glyceraldehyde-3-phosphate dehydrogenase (GAPDH) endogenous control kit. Primers and probes were designed using either ABI PRISM PRIMER EXPRESS™ software or a pre-developed ABI gene analysis kit. For each gene, either one of the primers or the probe were designed to be exon-boundary spanning. This eliminated the possibility of the primers/probe binding to any genomic DNA present. The primer and probe sets are listed as follows: Pdx-1 (Hs00426216), Insulin (Hs00355773), glucagon (Hs00174967), and FoxA2 (HNF 3-beta) (Hs00232764). The remaining primers were designed using the PRIMERS program (ABI, CA). After an initial 95° C. incubation for 20 sec, samples were cycled 40 times in two stages: a denaturation step at 95° C. for 3 sec, followed by an annealing/extension step at 60° C. for 30 sec. […]

[2] = test system: early passage (P5) pancreatic-derived stromal cell line; test: as above; format: cell-based, human; conditions: for HNF-3 beta gene expression / Insulin gene expression / Pdx-1 gene expression / glucagon gene expression: 5 μM 0-48 h + 96-120 h;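 on HNF-3 beta RT-PCR detection cycle: lower cycle number means higher gene expression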;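 on glucagon RT-PCR detection cycle: lower cycle number means higher gene expression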
Experimental: as §1, §2, §3, §4

[3] = for 48 hours following addition
[4] = once trichostatin A was added again
[5] = 5.0 μM, following the second addition

Structure (SMILES): CC(/C=C/C(=O)NO)=C\[C@@H](C)C(=O)c1ccc(N(C)C)cc1 [trichostatin A]
- HNF-3 beta gene expression ([1]; 24 hrs): +++ (detectable at less than 35 cycles by RT-PCR with SE less than 0.9)
- Insulin gene expression ([1]; 24 hrs): nd (not detectable at >40 cycles by RT-PCR)
- Pdx-1 gene expression ([1]; 24 hrs): + (detectable between 35 and 40 cycles by RT-PCR)
- glucagon gene expression ([1]; 24 hrs): +++ (detectable at less than 35 cycles by RT-PCR with SE less than 0.9)
- HNF-3 beta gene expression ([1]; 48 hrs): +++ (detectable at less than 35 cycles by RT-PCR with SE less than 0.9)
- Insulin gene expression ([1]; 48 hrs): nd (not detectable at >40 cycles by RT-PCR)
- Pdx-1 gene expression ([1]; 48 hrs): +++ (detectable at less than 35 cycles by RT-PCR with SE less than 0.9)
- glucagon gene expression ([1]; 48 hrs): +++ (detectable at less than 35 cycles by RT-PCR with SE less than 0.9)
- HNF-3 beta gene expression ([1]; 72 hrs): nd (not detectable at >40 cycles by RT-PCR)
- Insulin gene expression ([1]; 72 hrs): nd (not detectable at >40 cycles by RT-PCR)
- Pdx-1 gene expression ([1]; 72 hrs): nd (not detectable at >40 cycles by RT-PCR)
- glucagon gene expression ([1]; 72 hrs): + (detectable between 35 and 40 cycles by RT-PCR)
- HNF-3 beta gene expression ([1]; 96 hrs): nd (not detectable at >40 cycles by RT-PCR)
- Insulin gene expression ([1]; 96 hrs): nd (not detectable at >40 cycles by RT-PCR)
- Pdx-1 gene expression ([1]; 96 hrs): nd (not detectable at >40 cycles by RT-PCR)
- glucagon gene expression ([1]; 96 hrs): nd (not detectable at >40 cycles by RT-PCR)
- HNF-3 beta gene expression ([1]; 120 hrs): +++ (detectable at less than 35 cycles by RT-PCR with SE less than 0.9)
- Insulin gene expression ([1]; 120 hrs): + (detectable between 35 and 40 cycles by RT-PCR)
- Pdx-1 gene expression ([1]; 120 hrs): +++ (detectable at less than 35 cycles by RT-PCR with SE less than 0.9)
- glucagon gene expression ([1]; 120 hrs): + (detectable between 35 and 40 cycles by RT-PCR)
- HNF-3 beta RT-PCR detection cycle ([1]; after addition): 32 cycles
- Pdx-1 RT-PCR detection cycle ([1]; after addition): 31 cycles
- glucagon RT-PCR detection cycle ([1]; after addition (for 48 hours)): 33 cycles
- glucagon RT-PCR detection cycle ([1]; following the removal): 37 cycles
- HNF-3 beta RT-PCR detection cycle [1, 3]: 33 cycles
- Pdx-1 RT-PCR detection cycle [1, 3]: 32 cycles
- HNF-3 beta RT-PCR detection cycle [1, 4]: 34 cycles
- Pdx-1 RT-PCR detection cycle [1, 4]: 33 cycles
- glucagon RT-PCR detection cycle ([1]; second treatment): 35 cycles
- HNF-3 beta gene expression ([2]; 24 hrs): +++ (detectable at less than 35 cycles by RT-PCR with SE less than 0.9)
- Insulin gene expression ([2]; 24 hrs): nd (not detectable at >40 cycles by RT-PCR)
- Pdx-1 gene expression ([2]; 24 hrs): +++ (detectable at less than 35 cycles by RT-PCR with SE less than 0.9)
- glucagon gene expression ([2]; 24 hrs): +++ (detectable at less than 35 cycles by RT-PCR with SE less than 0.9)
- HNF-3 beta gene expression ([2]; 48 hrs): +++ (detectable at less than 35 cycles by RT-PCR with SE less than 0.9)
- Insulin gene expression ([2]; 48 hrs): nd (not detectable at >40 cycles by RT-PCR)
- Pdx-1 gene expression ([2]; 48 hrs): +++ (detectable at less than 35 cycles by RT-PCR with SE less than 0.9)
- glucagon gene expression ([2]; 48 hrs): +++ (detectable at less than 35 cycles by RT-PCR with SE less than 0.9)
- HNF-3 beta gene expression ([2]; 72 hrs): nd (not detectable at >40 cycles by RT-PCR)
- Insulin gene expression ([2]; 72 hrs): +++ (detectable at less than 35 cycles by RT-PCR with SE less than 0.9)
- Pdx-1 gene expression ([2]; 72 hrs): nd (not detectable at >40 cycles by RT-PCR)
- glucagon gene expression ([2]; 72 hrs): + (detectable between 35 and 40 cycles by RT-PCR)
- HNF-3 beta gene expression ([2]; 96 hrs): nd (not detectable at >40 cycles by RT-PCR)
- Insulin gene expression ([2]; 96 hrs): nd (not detectable at >40 cycles by RT-PCR)
- Pdx-1 gene expression ([2]; 96 hrs): nd (not detectable at >40 cycles by RT-PCR)
- glucagon gene expression ([2]; 96 hrs): + (detectable between 35 and 40 cycles by RT-PCR)
- HNF-3 beta gene expression ([2]; 120 hrs): +++ (detectable at less than 35 cycles by RT-PCR with SE less than 0.9)
- Insulin gene expression ([2]; 120 hrs): nd (not detectable at >40 cycles by RT-PCR)
- Pdx-1 gene expression ([2]; 120 hrs): +++ (detectable at less than 35 cycles by RT-PCR with SE less than 0.9)
- glucagon gene expression ([2]; 120 hrs): + (detectable between 35 and 40 cycles by RT-PCR)
- Pdx-1 RT-PCR detection cycle ([2]; 5.0 μM, 48 hours): 32 cycles
- glucagon RT-PCR detection cycle ([2]; 5.0 μM, 48 hours): 33 cycles
- glucagon RT-PCR detection cycle ([2]; 5.0 μM, after trichostatin A was removed): 38 cycles
- Insulin RT-PCR detection cycle ([2]; 5.0 μM, following the medium change): 33 cycles
- Pdx-1 RT-PCR detection cycle [2, 5]: 32 cycles
- glucagon RT-PCR detection cycle [2, 5]: 37 cycles
- glucagon RT-PCR detection cycle ([2]; 5.0 μM, following treatment): 35 cycles
- HNF-3 beta RT-PCR detection cycle ([2]; 5.0 μM, following treatment until removal): 34 cycles
- HNF-3 beta RT-PCR detection cycle ([2]; 5.0 μM, when trichostatin A was added again): 33 cycles

Reference: patent US20080063628A1, “METHODS TO PROMOTE CELL DIFFERENTIATION” (priority 2006, published 2008)
